From ChEMBL document CHEMBL1201862, “PubChem BioAssay data set” (2004)
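Cultured in 96-well plates, cells were exposed to test compound for 48 hours across five concentrations. At the GI50, growth is halved.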 Calls of active or inactive are those of the source. Cut-off read from the data, not from the text of the source: active = GI50 up to about 1.1 µM and inactive = higher.

Tests used:
Assay in all cases: DTP human tumour cell line panel, 48 h
[1] = tested on: SK-MEL-2
[2] = tested on: OVCAR-5
[3] = tested on: NCI-H226
[4] = tested on: UO-31
[5] = tested on: HOP-62
[6] = tested on: SF-295
[7] = tested on: EKVX
[8] = tested on: M14
[9] = tested on: SR
[10] = tested on: A498
[11] = tested on: RPMI-8226
[12] = tested on: HOP-92
[13] = tested on: HCT-116
[14] = tested on: 786-0
[15] = tested on: SN12C
[16] = tested on: CAKI-1
[17] = tested on: IGROV-1
[18] = tested on: OVCAR-8
[19] = tested on: UACC-257

Measured: GI50

Oc1ccc(-c2n[nH]c(S)n2)cc1
inactive: [1] > 100 µM | [2] > 100 µM | [3] > 100 µM | [4] > 100 µM | [5] > 100 µM | [6] > 100 µM | [7] > 100 µM | [8] > 100 µM | [9] > 100 µM | [10] > 100 µM | [11] > 100 µM | [12] > 100 µM | [13] > 100 µM | [14] > 100 µM | [15] > 100 µM | [16] > 100 µM | [17] > 100 µM | [18] > 100 µM | [19] > 100 µM

COC(=O)C(C(=O)C(=O)Nc1ccc(C)cc1C)c1nc2ccc([N+](=O)[O-])cc2nc1O (centres undefined)
inactive: [1] > 100 µM | [2] > 100 µM | [3] > 100 µM | [4] 76.2 µM | [5] > 100 µM | [6] > 100 µM | [7] > 100 µM | [8] > 100 µM | [9] > 100 µM | [10] > 100 µM | [11] 33.8 µM | [12] > 100 µM | [13] > 100 µM | [14] > 100 µM | [15] > 100 µM | [16] > 100 µM | [17] > 100 µM | [18] > 100 µM | [19] > 100 µM

O=C(O)C12C3CCC(C3)C1(C(=O)O)C1CCC2C1 (centres undefined)
inactive: [1] > 100 µM | [2] > 100 µM | [3] > 100 µM | [4] > 100 µM | [5] > 100 µM | [6] > 100 µM | [7] > 100 µM | [8] > 100 µM | [9] 60.3 µM | [10] > 100 µM | [11] 23.3 µM | [12] > 100 µM | [13] 45.3 µM | [14] > 100 µM | [15] > 100 µM | [16] > 100 µM | [17] > 100 µM | [18] > 100 µM | [19] > 100 µM

Cc1ccc(C(=O)C(C)N)cc1 (centres undefined)
inactive: [1] > 100 µM | [2] > 100 µM | [3] > 100 µM | [4] > 100 µM | [5] > 100 µM | [6] > 100 µM | [7] > 100 µM | [8] > 100 µM | [9] > 100 µM | [10] > 100 µM | [11] > 100 µM | [12] > 100 µM | [13] > 100 µM | [14] > 100 µM | [15] > 100 µM | [16] > 100 µM | [17] > 100 µM | [18] > 100 µM | [19] > 100 µM

COc1cc(C2(C)SCCCS2)cc(OC)c1OC
inactive: [1] > 100 µM | [2] > 100 µM | [3] > 100 µM | [4] > 100 µM | [5] > 100 µM | [6] > 100 µM | [7] > 100 µM | [8] > 100 µM | [9] > 100 µM | [10] > 100 µM | [11] > 100 µM | [12] > 100 µM | [13] > 100 µM | [14] > 100 µM | [15] > 100 µM | [16] > 100 µM | [17] > 100 µM | [18] > 100 µM | [19] > 100 µM

Cc1cccc(N2C(=O)/C(=C/c3ccc(N(CCC#N)CCC#N)cc3C)N=C2c2cc([N+](=O)[O-])ccc2Cl)c1
inactive: [1] > 100 µM | [2] > 100 µM | [3] > 100 µM | [4] > 100 µM | [5] > 100 µM | [6] > 100 µM | [7] 68.1 µM | [8] > 100 µM | [9] > 100 µM | [10] > 100 µM | [11] > 100 µM | [12] > 100 µM | [13] 85.7 µM | [14] > 100 µM | [15] > 100 µM | [16] 8.18 µM | [17] > 100 µM | [18] > 100 µM | [19] > 100 µM
